Measured values as given in ChEMBL document CHEMBL4706703, “Novel 3-benzylidene/benzylphthalide Mannich base derivatives as potential multifunctional agents for the treatment of Alzheimer's disease” (Bioorg Med Chem, 2021).

Legend:
[1] = molecular target: Acetylcholinesterase (Electrophorus electricus) (UniProt O42275); assay: Inhibition of Electrophorus electricus AChE at 10 uM using acetylthiocholine iodide as substrate incubated for 15 mins by Ellman's method relative to control
[2] = molecular target: butyrylcholinesterase (BuChE) (Rattus norvegicus, UniProt Q9JKC1); assay: Inhibition of rat serum BuChE at 10 uM using butyrylthiocholine iodide as substrate incubated for 15 mins by Ellman's method relative to control; assay type: cell-free; conditions: probe butyrylthiocholine iodide
MAO-A = molecular target: T1, MAO-A (Homo sapiens, UniProt P21397); assay: Inhibition of recombinant human MAOA at 10 uM using kynuramine as substrate preincubated for 30 mins followed by substrate addition and measured after 30 mins by fluorescence assay relative to control; conditions: probe kynuramine, time 60 min
T1 sequence (P21397 whole entry): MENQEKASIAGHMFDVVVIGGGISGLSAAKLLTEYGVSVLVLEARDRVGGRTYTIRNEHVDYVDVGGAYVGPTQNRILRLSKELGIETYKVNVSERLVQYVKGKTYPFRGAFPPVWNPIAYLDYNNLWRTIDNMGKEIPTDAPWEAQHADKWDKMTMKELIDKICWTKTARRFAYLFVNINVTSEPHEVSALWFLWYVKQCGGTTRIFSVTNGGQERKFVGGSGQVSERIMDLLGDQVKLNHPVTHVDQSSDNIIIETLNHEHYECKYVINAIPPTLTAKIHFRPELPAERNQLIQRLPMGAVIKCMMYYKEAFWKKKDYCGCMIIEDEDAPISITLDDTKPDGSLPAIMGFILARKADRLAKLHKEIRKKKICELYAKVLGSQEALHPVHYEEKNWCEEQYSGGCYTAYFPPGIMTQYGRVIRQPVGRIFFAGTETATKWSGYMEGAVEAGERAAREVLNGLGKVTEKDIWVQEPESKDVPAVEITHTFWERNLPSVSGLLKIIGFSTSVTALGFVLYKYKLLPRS

[3] = molecular target: T2, Amine oxidase [flavin-containing] B (Homo sapiens, UniProt P27338); assay: Inhibition of recombinant human MAOB at 10 uM using kynuramine as substrate preincubated for 30 mins followed by substrate addition and measured after 30 mins by fluorescence assay relative to control; conditions: 0.5 h
T2 sequence (P27338 whole entry): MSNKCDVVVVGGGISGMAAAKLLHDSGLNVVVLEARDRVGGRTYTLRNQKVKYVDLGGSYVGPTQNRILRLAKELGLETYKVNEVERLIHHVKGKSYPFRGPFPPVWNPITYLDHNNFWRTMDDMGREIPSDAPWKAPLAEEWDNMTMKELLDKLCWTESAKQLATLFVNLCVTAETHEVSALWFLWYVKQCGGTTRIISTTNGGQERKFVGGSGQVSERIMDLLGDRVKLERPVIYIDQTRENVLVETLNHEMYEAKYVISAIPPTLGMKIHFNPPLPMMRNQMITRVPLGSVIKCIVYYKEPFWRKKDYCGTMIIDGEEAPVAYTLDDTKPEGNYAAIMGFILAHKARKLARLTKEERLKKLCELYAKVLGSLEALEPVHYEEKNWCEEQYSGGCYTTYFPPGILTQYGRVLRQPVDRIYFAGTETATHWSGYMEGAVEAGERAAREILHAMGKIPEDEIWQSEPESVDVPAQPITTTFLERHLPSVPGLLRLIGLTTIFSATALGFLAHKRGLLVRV

[4] = Antioxidant activity assessed as trolox equivalent of AAPH radical scavenging activity measured every min for 90 mins by ORAC-FL assay; assay type: functional
Acetylcholinesterase [5] = molecular target: Acetylcholinesterase (Electrophorus electricus, UniProt O42275); assay: Inhibition of Electrophorus electricus AChE using acetylthiocholine iodide as substrate incubated for 15 mins by Ellman's method
[6] = molecular target: Amyloid-beta precursor protein (Homo sapiens) (UniProt P05067); assay: Inhibition of amyloid beta (1 to 42) (unknown origin) self aggregation at 25 uM after 24 hrs by thioflavin-T fluorescence method relative to control
[7] = Inhibition of Cu2+-induced amyloid beta (1 to 42 residues) aggregation at 25 uM after 24 hrs by thioflavin T-based fluorescence assay relative to control
Plasma = assay: Antiplatelet activity in rat platelet-rich plasma assessed as inhibition of ADP-induced platelet aggregation at 33 uM preincubated for 30 mins followed by ADP addition measured within 5 mins by aggregometry relative to control; assay type: functional; conditions: time 30-35 min
Acetylcholinesterase [8] = molecular target: Acetylcholinesterase (Homo sapiens, UniProt P22303); assay: Inhibition of human AChE using acetylthiocholine iodide as substrate incubated for 15 mins by Ellman's method
Chain of Acetylcholinesterase (Homo sapiens, UniProt P22303) (P22303 whole entry): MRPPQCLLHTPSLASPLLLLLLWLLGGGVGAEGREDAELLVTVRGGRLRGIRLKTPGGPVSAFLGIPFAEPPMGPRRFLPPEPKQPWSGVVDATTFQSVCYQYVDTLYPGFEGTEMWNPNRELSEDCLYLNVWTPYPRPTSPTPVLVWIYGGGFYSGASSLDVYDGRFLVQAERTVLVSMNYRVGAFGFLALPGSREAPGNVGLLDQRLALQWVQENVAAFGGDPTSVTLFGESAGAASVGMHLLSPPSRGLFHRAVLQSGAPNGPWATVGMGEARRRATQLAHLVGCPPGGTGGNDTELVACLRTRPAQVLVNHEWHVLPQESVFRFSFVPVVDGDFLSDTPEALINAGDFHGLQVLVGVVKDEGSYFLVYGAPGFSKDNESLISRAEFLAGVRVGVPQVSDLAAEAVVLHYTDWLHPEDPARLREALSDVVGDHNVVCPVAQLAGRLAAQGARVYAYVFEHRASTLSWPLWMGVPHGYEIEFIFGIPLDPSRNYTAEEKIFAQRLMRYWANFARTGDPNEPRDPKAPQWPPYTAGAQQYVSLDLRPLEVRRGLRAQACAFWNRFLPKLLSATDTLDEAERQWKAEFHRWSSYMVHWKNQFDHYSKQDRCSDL

Chain of Amyloid-beta precursor protein (Homo sapiens) (P05067 whole entry, the tested form may be a part): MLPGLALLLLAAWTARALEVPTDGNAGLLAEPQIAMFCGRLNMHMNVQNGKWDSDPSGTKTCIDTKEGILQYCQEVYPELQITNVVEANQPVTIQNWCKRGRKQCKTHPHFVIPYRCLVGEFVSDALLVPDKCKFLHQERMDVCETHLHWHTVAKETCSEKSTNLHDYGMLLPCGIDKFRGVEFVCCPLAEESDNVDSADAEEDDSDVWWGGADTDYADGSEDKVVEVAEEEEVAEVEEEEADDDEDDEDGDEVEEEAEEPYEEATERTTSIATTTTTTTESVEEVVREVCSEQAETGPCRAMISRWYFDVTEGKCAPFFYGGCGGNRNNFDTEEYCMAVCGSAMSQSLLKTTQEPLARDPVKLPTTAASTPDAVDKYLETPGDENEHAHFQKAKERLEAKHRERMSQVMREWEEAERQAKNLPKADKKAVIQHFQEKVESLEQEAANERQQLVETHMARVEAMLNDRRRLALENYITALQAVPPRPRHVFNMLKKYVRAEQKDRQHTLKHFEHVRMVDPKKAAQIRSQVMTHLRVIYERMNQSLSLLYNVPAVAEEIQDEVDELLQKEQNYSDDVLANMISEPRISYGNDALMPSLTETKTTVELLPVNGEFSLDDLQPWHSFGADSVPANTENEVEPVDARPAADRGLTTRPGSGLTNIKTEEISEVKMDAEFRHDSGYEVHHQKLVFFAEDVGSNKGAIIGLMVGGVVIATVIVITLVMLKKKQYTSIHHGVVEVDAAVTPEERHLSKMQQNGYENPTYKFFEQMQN
Chain of butyrylcholinesterase (BuChE) (Q9JKC1 whole entry): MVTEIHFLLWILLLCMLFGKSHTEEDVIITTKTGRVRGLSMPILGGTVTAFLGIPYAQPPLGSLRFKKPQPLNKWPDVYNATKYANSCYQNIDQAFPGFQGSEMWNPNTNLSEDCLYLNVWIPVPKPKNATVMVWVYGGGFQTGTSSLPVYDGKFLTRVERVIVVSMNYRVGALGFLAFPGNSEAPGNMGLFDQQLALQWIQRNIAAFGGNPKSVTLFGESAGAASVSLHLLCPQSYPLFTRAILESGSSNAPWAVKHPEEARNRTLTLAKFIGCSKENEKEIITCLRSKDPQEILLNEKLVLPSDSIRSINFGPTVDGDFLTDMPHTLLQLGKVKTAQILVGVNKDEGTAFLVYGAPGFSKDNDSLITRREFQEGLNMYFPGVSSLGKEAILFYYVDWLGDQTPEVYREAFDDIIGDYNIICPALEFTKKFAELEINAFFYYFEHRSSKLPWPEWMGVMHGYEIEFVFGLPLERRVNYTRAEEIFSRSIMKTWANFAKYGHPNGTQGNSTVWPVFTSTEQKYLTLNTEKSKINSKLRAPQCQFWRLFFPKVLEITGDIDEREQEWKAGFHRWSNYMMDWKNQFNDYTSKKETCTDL
Chain of Acetylcholinesterase (Electrophorus electricus, UniProt O42275) (O42275 whole entry): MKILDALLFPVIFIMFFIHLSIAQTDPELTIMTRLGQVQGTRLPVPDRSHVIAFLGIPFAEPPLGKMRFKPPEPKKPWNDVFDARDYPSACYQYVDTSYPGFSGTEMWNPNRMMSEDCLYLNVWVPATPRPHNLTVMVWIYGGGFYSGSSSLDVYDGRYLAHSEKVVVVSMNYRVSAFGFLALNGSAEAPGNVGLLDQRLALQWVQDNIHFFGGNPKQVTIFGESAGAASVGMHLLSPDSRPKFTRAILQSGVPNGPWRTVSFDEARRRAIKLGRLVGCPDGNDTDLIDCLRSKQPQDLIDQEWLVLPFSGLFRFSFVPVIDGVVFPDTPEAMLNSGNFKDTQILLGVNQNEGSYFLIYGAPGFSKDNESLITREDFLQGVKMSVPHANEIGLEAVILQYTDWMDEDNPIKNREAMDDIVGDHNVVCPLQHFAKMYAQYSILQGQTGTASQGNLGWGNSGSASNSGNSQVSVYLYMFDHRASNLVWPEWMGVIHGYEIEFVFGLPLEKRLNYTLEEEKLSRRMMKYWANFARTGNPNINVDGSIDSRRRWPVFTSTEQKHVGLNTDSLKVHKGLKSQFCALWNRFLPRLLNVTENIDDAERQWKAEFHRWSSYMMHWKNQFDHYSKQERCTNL
Chain of Acetylcholinesterase (Electrophorus electricus) (O42275 24-633 limits assumed): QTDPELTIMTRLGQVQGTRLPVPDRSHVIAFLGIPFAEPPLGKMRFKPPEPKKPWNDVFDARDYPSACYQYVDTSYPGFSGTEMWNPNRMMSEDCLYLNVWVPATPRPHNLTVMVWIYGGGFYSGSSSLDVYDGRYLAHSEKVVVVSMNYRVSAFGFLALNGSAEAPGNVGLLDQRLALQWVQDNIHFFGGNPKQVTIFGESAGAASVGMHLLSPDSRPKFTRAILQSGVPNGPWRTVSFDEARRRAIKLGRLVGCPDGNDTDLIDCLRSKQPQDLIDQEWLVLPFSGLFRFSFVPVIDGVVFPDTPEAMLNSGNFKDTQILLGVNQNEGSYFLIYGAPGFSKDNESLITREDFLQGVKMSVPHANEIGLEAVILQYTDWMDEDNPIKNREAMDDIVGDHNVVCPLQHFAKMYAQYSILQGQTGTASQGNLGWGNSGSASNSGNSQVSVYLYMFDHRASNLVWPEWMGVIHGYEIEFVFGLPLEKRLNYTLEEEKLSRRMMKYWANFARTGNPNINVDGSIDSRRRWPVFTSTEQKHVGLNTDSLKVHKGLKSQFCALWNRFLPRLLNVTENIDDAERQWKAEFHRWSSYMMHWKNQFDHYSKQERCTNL

SMILES	inhibition [1] [%]	inhibition at […], 10 µM [2] [%]	inhibition at 0.5 h, 10 µM (MAO-A) [%]	inhibition at 10 µM [3] [%]	Activity [4] [equiv]	IC50 (Acetylcholinesterase [5]) [nM]	inhibition [6] [%]	inhibition [7] [%]	inhibition at 33 µM (Plasma) [%]	IC50 (Acetylcholinesterase [8]) [nM]
COc1cc2c(cc1OC)C(Cc1cccc(O)c1)OC2=O (stereo not drawn)	14.4	< 5	7.9	6.2	0.95	–	–	–	–	–
COc1cc2c(cc1OC)/C(=C\c1cccc(O)c1N1CCN(C)CC1)OC2=O	–	5.9	10	13.2	1.38	12400	–	–	–	–
COc1cc2c(cc1OC)/C(=C\c1cccc(O)c1N1CCCCC1)OC2=O	42.8	16.4	< 5	24.2	2.58	–	–	–	–	–
COc1cc2c(cc1OC)C(Cc1cccc(O)c1N1CCCCC1)OC2=O (stereo not drawn)	12.6	< 5	< 5	15.6	1.44	–	–	–	–	–
COc1cc2c(cc1OC)/C(=C\c1cccc(O)c1N1CCOCC1)OC2=O	40.8	11.3	< 5	10.1	2.06	–	–	–	–	–
COc1cc2c(cc1OC)C(Cc1ccc(N3CCOCC3)c(O)c1)OC2=O (stereo not drawn)	–	< 5	8.7	34.7	2.42	8260	29.5	9.5	–	–
COc1cc2c(cc1OC)C(Cc1cccc(O)c1N1CCCC1)OC2=O (stereo not drawn)	19.4	7.1	10.5	11.3	1.86	–	–	–	–	–
COc1cc2c(cc1OC)/C(=C\c1ccc(N3CCN(C)CC3)c(O)c1)OC2=O	–	5.5	5	31.4	2.36	2630	–	–	–	–
CCN(CC)c1ccc(/C=C2/OC(=O)c3cc(OC)c(OC)cc32)cc1O	–	5.7	48	49	4.48	26	26.1	–	< 5	–
COc1cc2c(cc1OC)C(Cc1cccc(O)c1N1CCN(C)CC1)OC2=O (stereo not drawn)	14	< 5	< 5	< 5	2.13	–	–	–	–	–
COc1cc2c(cc1OC)/C(=C\c1ccc(N3CCCCC3)c(O)c1)OC2=O	–	26.2	49.1	16.1	1.94	8.83	22.5	–	< 5	12
COc1cc2c(cc1OC)C(Cc1ccc(N3CCN(C)CC3)c(O)c1)OC2=O (stereo not drawn)	42.4	< 5	5.6	17	2.09	–	–	–	–	–
COc1cc2c(cc1OC)C(Cc1cccc(O)c1N1CCOCC1)OC2=O (stereo not drawn)	11	< 5	< 5	19.1	2.28	–	–	–	–	–
CCN(CC)c1ccc(CC2OC(=O)c3cc(OC)c(OC)cc32)cc1O (stereo not drawn)	–	< 5	< 5	< 5	2.14	2210	30.1	14.3	< 5	–
CCN(CC)c1ccc(/C=C2\OC(=O)c3cc(OC)c(OC)cc32)cc1O	–	< 5	< 5	39.4	2.7	72	28.6	–	12.4	–
COc1cc2c(cc1OC)/C(=C/c1cccc(O)c1N1CCCC1)OC2=O	–	8.8	< 5	10.3	2.18	8860	–	–	–	–

SMILES	inhibition [1] [%]	inhibition at […], 10 µM [2] [%]	inhibition at 0.5 h, 10 µM (MAO-A) [%]	inhibition at 10 µM [3] [%]	Activity [4] [equiv]	IC50 (Acetylcholinesterase [5]) [nM]	inhibition [6] [%]	inhibition [7] [%]	inhibition at 33 µM (Plasma) [%]	IC50 (Acetylcholinesterase [8]) [nM]
COc1cc2c(cc1OC)/C(=C\c1ccc(N3CCOCC3)c(O)c1)OC2=O	–	5.7	18.7	13	1.76	2430	24.9	–	–	–
CCN(CC)c1cc(/C=C2/OC(=O)c3cc(OC)c(OC)cc32)ccc1O	–	25.1	< 5	24.9	2.62	0.307	33.6	–	53.8	1.28
COc1cc2c(cc1OC)/C(=C/c1cccc(O)c1N1CCOCC1)OC2=O	15.1	< 5	6.6	27.9	1.48	–	–	–	–	–
COc1cc2c(cc1OC)/C(=C/c1cccc(O)c1N1CCN(C)CC1)OC2=O	22.3	< 5	< 5	29.5	2.09	–	–	–	–	–
CCN(CC)c1c(O)cccc1CC1OC(=O)c2cc(OC)c(OC)cc21 (stereo not drawn)	16.3	12.5	< 5	< 5	2.78	–	–	–	–	–
COc1cc2c(cc1OC)/C(=C\c1cccc(O)c1N1CCCC1)OC2=O	–	49.6	< 5	12.5	2.46	19500	–	–	–	–
COc1cc2c(cc1OC)/C(=C\c1ccc(N3CCCC3)c(O)c1)OC2=O	–	16.5	32	27.8	2.82	660	30.6	–	9.8	–
COc1cc2c(cc1OC)C(Cc1ccc(N3CCCC3)c(O)c1)OC2=O (stereo not drawn)	–	19.8	< 5	14.6	2.54	960	31.1	18.5	< 5	–
COc1cc2c(cc1OC)/C(=C/c1ccc(N3CCOCC3)c(O)c1)OC2=O	–	< 5	5.3	50.2	1.77	9680	26.7	–	–	–
CC(=O)Oc1ccccc1C(=O)O [ASPIRIN]	–	–	–	–	–	–	–	–	12.4	–
COc1cc2c(cc1OC)/C(=C/c1cccc(O)c1N1CCCCC1)OC2=O	41.1	6.7	< 5	20.3	2.08	–	–	–	–	–
CCN(CC)c1c(O)cccc1/C=C1/OC(=O)c2cc(OC)c(OC)cc21	46.9	31.4	< 5	44.6	2.53	–	–	–	–	–
COc1cc2c(cc1OC)C(Cc1ccc(N3CCCCC3)c(O)c1)OC2=O (stereo not drawn)	–	10.3	14.8	8.6	2.42	33	28.9	12.8	< 5	–
COc1cc2c(cc1OC)/C(=C/c1ccc(N3CCCC3)c(O)c1)OC2=O	–	9.4	5.1	28.3	4.1	31	23	–	< 5	–
CCN(CC)c1c(O)cccc1/C=C1\OC(=O)c2cc(OC)c(OC)cc21	38	< 5	< 5	44.9	2.87	–	–	–	–	–
